Values after ≈ are worked out from the molar mass of the structure shown. Positions of bridges follow the written chain, without caps; N, C: chain ends. Non-standard residues stand in square brackets, D forms with d. Residues, ends and D or L forms follow the SMILES beside them. *: point of attachment. Decanoyl(3R-OH) = CCCCCCC[C@@H](O)CC(=O)*; dPhe(4-NH2) = Nc1ccc(C[C@@H](N)C(=O)O)cc1; d3Pal = N[C@H](Cc1cccnc1)C(=O)O; Dab = NCC[C@H](N)C(=O)O
Legend:
in vitro = conditions: human
Outline: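 Cells were seeded at 4000 per well and allowed to attach for 24 h at 37 °C, 5% CO2, then exposed to compounds for 24 h. Resazurin (5 μM) was added for 2 h at 37 °C and fluorescence read at 560/590 nm. CC50 was derived by curve fitting of dose-dependent growth inhibition.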

[1] = test system: S. aureus ATCC 25923, MSSA; conditions: ATCC 25923
Outline: (§1)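 Mid-log cultures grown in Mueller Hinton broth at 37° C were tested by 2-fold broth microdilution at 5×10^5 CFU/mL final. Compounds were dissolved in water and tested over a final range of 32 to 0.015 μg/mL.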

[2] = test system: K. pneumoniae GN_106, PmxR; conditions: GN 106, PmxR
Outline: as §1

[3] = test system: P. aeruginosa GN_043, PmxR; conditions: P. aeruginosa GN_043, PmxR
Outline: as §1

[4] = test system: K. pneumoniae ATCC 700603, MDR; conditions: ATCC 700603
Outline: as §1

E. coli ATCC 25922 = conditions: ATCC 25922
Outline: as §1

A. baumannii GN_093 PmxR = conditions: GN 093 PmxR
Outline: as §1

[5] = test system: K. pneumoniae ATCC BAA-2146, NDM-1 pos; conditions: ATCC BAA-2146
Outline: as §1

A. baumannii ATCC 19606 = conditions: ATCC 19606
Outline: as §1

[6] = test system: P. aeruginosa GN_105, PmxR; conditions: GN 105, PmxR
Outline: as §1

[7] = test system: K. pneumoniae GN_102 PmxR; conditions: GN 102 PmxR
Outline: as §1

K. pneumoniae ATCC 13883 = conditions: ATCC 13883
Outline: as §1

P. aeruginosa ATCC 27853 = conditions: ATCC 27853
Outline: as §1

With `CCCCCCC[C@@H](O)CC(=O)N[C@H](Cc1ccc(N)cc1)C(=O)N[C@H]1CCNC(=O)[C@H](CC(C)C)NC(=O)[C@H](CCN)NC(=O)[C@H](CCN)NC(=O)[C@H](Cc2ccccc2)NC(=O)[C@@H](CC(C)C)NC(=O)[C@H](CCN)NC1=O` [compound 6429, 3(R)OH-nC9CO-D-4NH2Phe-cyc[L-Dab-L-Dab-D-Leu-L-Phe-L-Dab-L-Dab-L-Leu]] ({Decanoyl(3R-OH)}-[dPhe(4-NH2)][Dab][Dab][dL]F[Dab][Dab]L; lactam 2-C) the CC50 at 24 h (in vitro) was over 300 µM, the “MIC S. aureus ATCC 25923, MSSA” value [1] was over 32 µg/mL and the “MIC K. pneumoniae GN_106, PmxR” value [2] was 8 µg/mL (≈ 7.23 µM). For the same compound, the “MIC P. aeruginosa GN_043, PmxR” value [3] was 16 µg/mL (≈ 14.5 µM), the “MIC K. pneumoniae ATCC 700603, MDR” value [4] was 8 µg/mL (≈ 7.23 µM) and the “MIC E. coli ATCC 25922” value (E. coli ATCC 25922) was 16 µg/mL (≈ 14.5 µM). For the same compound, the “MIC A. baumannii GN_093 PmxR” value (A. baumannii GN_093 PmxR) was over 32 µg/mL, the “MIC K. pneumoniae ATCC BAA-2146, NDM-1 pos” value [5] was 16 µg/mL (≈ 14.5 µM) and the “MIC A. baumannii ATCC 19606” value (A. baumannii ATCC 19606) was 32 µg/mL (≈ 28.9 µM). The “MIC P. aeruginosa GN_105, PmxR” value [6] was 32 µg/mL (≈ 28.9 µM), the “MIC K. pneumoniae GN_102 PmxR” value [7] was 8 µg/mL (≈ 7.23 µM) and the “MIC K. pneumoniae ATCC 13883” value (K. pneumoniae ATCC 13883) was 16 µg/mL (≈ 14.5 µM). For the same compound, the “MIC P. aeruginosa ATCC 27853” value (P. aeruginosa ATCC 27853) was 32 µg/mL (≈ 28.9 µM).
For `CCCCCCC[C@@H](O)CC(=O)N[C@H](Cc1cccnc1)C(=O)N[C@H]1CCNC(=O)[C@H](CC(C)C)NC(=O)[C@H](CCN)NC(=O)[C@H](CCN)NC(=O)[C@H](Cc2ccccc2)NC(=O)[C@@H](CC(C)C)NC(=O)[C@H](CCN)NC1=O` [compound 6430, 3(R)OH-nC9CO-D-3PyPhe-cyc[L-Dab-L-Dab-D-Leu-L-Phe-L-Dab-L-Dab-L-Leu]] ({Decanoyl(3R-OH)}-[d3Pal][Dab][Dab][dL]F[Dab][Dab]L; lactam 2-C), the CC50 at 24 h (in vitro) was over 300 µM, the “MIC S. aureus ATCC 25923, MSSA” value [1] was over 32 µg/mL and the “MIC K. pneumoniae GN_106, PmxR” value [2] was 4 µg/mL (≈ 3.66 µM). The “MIC P. aeruginosa GN_043, PmxR” value [3] was 16 µg/mL (≈ 14.6 µM), the “MIC K. pneumoniae ATCC 700603, MDR” value [4] was 8 µg/mL (≈ 7.32 µM) and the “MIC E. coli ATCC 25922” value (E. coli ATCC 25922) was 16 µg/mL (≈ 14.6 µM). The “MIC A. baumannii GN_093 PmxR” value (A. baumannii GN_093 PmxR) was over 32 µg/mL, the “MIC K. pneumoniae ATCC BAA-2146, NDM-1 pos” value [5] was 16 µg/mL (≈ 14.6 µM) and the “MIC A. baumannii ATCC 19606” value (A. baumannii ATCC 19606) was 32 µg/mL (≈ 29.3 µM). The “MIC P. aeruginosa GN_105, PmxR” value [6] was 32 µg/mL (≈ 29.3 µM), the “MIC K. pneumoniae GN_102 PmxR” value [7] was 8 µg/mL (≈ 7.32 µM) and the “MIC K. pneumoniae ATCC 13883” value (K. pneumoniae ATCC 13883) was 16 µg/mL (≈ 14.6 µM). For the same compound, the “MIC P. aeruginosa ATCC 27853” value (P. aeruginosa ATCC 27853) was 32 µg/mL (≈ 29.3 µM).
With `CCCCCCC[C@@H](O)CC(=O)NCC(=O)N[C@H]1CCNC(=O)[C@H](CC(C)C)NC(=O)[C@H](CCN)NC(=O)[C@H](CCN)NC(=O)[C@H](Cc2ccccc2)NC(=O)[C@@H](CC(C)C)NC(=O)[C@H](CCN)NC1=O` [compound 6431, 3(R)OH-nC9CO-Gly-cyc[L-Dab-L-Dab-D-Leu-L-Phe-L-Dab-L-Dab-L-Leu]] ({Decanoyl(3R-OH)}-G[Dab][Dab][dL]F[Dab][Dab]L; lactam 2-C) the CC50 at 24 h (in vitro) was over 300 µM, the “MIC S. aureus ATCC 25923, MSSA” value [1] was over 32 µg/mL and the “MIC K. pneumoniae GN_106, PmxR” value [2] was 4 µg/mL (≈ 3.99 µM). The “MIC P. aeruginosa GN_043, PmxR” value [3] was 8 µg/mL (≈ 7.99 µM), the “MIC K. pneumoniae ATCC 700603, MDR” value [4] was 8 µg/mL (≈ 7.99 µM) and the “MIC E. coli ATCC 25922” value (E. coli ATCC 25922) was 16 µg/mL (≈ 16 µM). For the same compound, the “MIC A. baumannii GN_093 PmxR” value (A. baumannii GN_093 PmxR) was 32 µg/mL (≈ 32 µM), the “MIC K. pneumoniae ATCC BAA-2146, NDM-1 pos” value [5] was 8 µg/mL (≈ 7.99 µM) and the “MIC A. baumannii ATCC 19606” value (A. baumannii ATCC 19606) was 32 µg/mL (≈ 32 µM). The “MIC P. aeruginosa GN_105, PmxR” value [6] was 4 µg/mL (≈ 3.99 µM), the “MIC K. pneumoniae GN_102 PmxR” value [7] was 2 µg/mL (≈ 2 µM) and the “MIC K. pneumoniae ATCC 13883” value (K. pneumoniae ATCC 13883) was 8 µg/mL (≈ 7.99 µM). The “MIC P. aeruginosa ATCC 27853” value (P. aeruginosa ATCC 27853) was 8 µg/mL (≈ 7.99 µM).
